Earlier results on two compounds are cited in patent US20220054467A1, “TREATMENT OF PSORIASIS WITH TOPICAL TAPINAROF-TAZAROTENE COMBINATION COMPOSITIONS” (Sol-Gel Technologies Ltd., priority 2019, published 2022).

The conditions of data set [1]: as a single drug; placebo 20.2%.
For data set [2], the system named is interleukin-6 and interleukin-17A. Particulars: mouse models.
For data set [3] the test system is unchanged. Particulars: in vitro human skin.
Setting [4] is: 1% tapinarof arm vs. the 0.5% arm or vehicle.

Where two headings read alike, the source gives them in different places.

For the compound `CC(C)c1c(O)cc(/C=C/c2ccccc2)cc1O` [Tapinarof, 3,5-dihydroxy-4-isopropyl-trans-stilbene], the adverse effects in data set [1] is listed as 44.5%. For the same compound, in data set [2], the “effect on proinflammatory mediators, including interleukin-6 and interleukin-17A” value was “inhibit specific proinflammatory mediators”; the “effect on skin barrier function” value is listed as “enhance skin barrier function”. Besides, in data set [3], the “effect on proinflammatory mediators, including interleukin-6 and interleukin-17A” value is given as “inhibit specific proinflammatory mediators”; the “effect on skin barrier function” value was “enhance skin barrier function”. Besides, in the data set with plaque psoriasis (setting [4]), the efficacy result is “higher efficacy” and the onset of action result is “quicker onset of action”. Also, in the data set on plaque psoriasis (topical cream, clinical studies), the “most frequent adverse events” value was “folliculitis and contact dermatitis”.
Consider `C=C1/C(=C\C=C2/CCC[C@]3(C)[C@@H]([C@H](C)/C=C/[C@@H](O)C4CC4)CC[C@@H]23)C[C@@H](O)C[C@@H]1O` [calcipotriene], for which the adverse effects in data set [1] is given as 19.5%.
